Test results as given in patent US12138583B2, “Process for removal of acid gases from a fluid stream with a liquid absorbent comprising a piperazine ring” (BASF SE, priority 2019, dated 2024).
Read-outs that look alike come from different tables or passages of the source.

What was measured:
Assay type in all cases: physicochemical
[1] = Acid gas loading capacity: CO2 loading and stripping experiment; conditions: for CO2 loading after loading / CO2 loading after stripping / Cyclic CO2 capacity: 30 wt.-% amine in water; for CO2 loading after loading: 40° C., ambient pressure, 8 L (STP)/h CO2, about 4 h; for CO2 loading after stripping: stripping at 80° C. with N2 8 L (STP)/h, 60 min; for Cyclic CO2 capacity: difference of loading after loading and after stripping; for Acid gas loading capacities (in words): CO2 and H2S, absorbents 30 wt.-% in water, compared with TBAEE and MDEA
Method: (§1) A loading experiment and subsequently a stripping experiment were conducted. A glass condenser, which was operated at 5° C., was attached to a glass cylinder with a thermostated jacket. Condensate obtained in the course of the experiment was returned to the glass cylinder so as to prevent distortion of the test results by partial evaporation of the absorbent.
(§2) The glass cylinder was initially charged with about 100 mL of unladen absorbent (30% by weight of amine in water). To determine the absorption capacity, at ambient pressure and 40° C., 8 L (STP)/h of CO2 or H2S were passed through the absorption liquid via a frit over a period of about 4 h. Subsequently, the loading of CO2 or H2S was determined as follows:
(§3) The determination of H2S was effected by titration with silver nitrate solution. For this purpose, the sample to be analyzed was weighed into an aqueous solution together with about 2% by weight of sodium acetate and about 3% by weight of ammonia. Subsequently, the H2S content was determined by a potentiometric turning point titration by means of silver nitrate. At the turning point, H2S is fully bound as Ag2S. The CO2 content was determined as total inorganic carbon (TOC-V Series Shimadzu).
(§4) The laden solution was stripped by heating an identical apparatus setup to 80° C., introducing the laden absorbent and stripping it by means of an N2 stream (8 L (STP)/h). After 60 min, a sample was taken and the CO2 or H2S loading of the absorbent was determined as described above.
(§5) The difference in the loading at the end of the loading experiment and the loading at the end of the stripping experiment gives the respective cyclic capacity.

[2] = Thermal stability of aqueous amine solutions with and without acid gas loading; conditions: 150° C., 125 h; for Ratio of Degradation Without Acid Gas Loading: closed cylinder, amine concentration by GC before and after; for Ratio of Degradation Without Acid Gas Loading / Ratio of Degradation With Acid Gas Loading: in water: MDEA 40, TBAP-MPIP 30, TBAE-MPIP 25, DEAE-EPIP 30 wt.-%; for Ratio of Degradation With Acid Gas Loading: 20 m^3 (STP)/tsolvent CO2 and 20 m^3 (STP)/tsolvent H2S
Method: The thermal stability of TBAP-MPIP (30 wt.-% in water) and TBAE-MPIP (25 wt.-% in water) was compared to both MDEA (40 wt.-% MDEA in water) and DEAE-EPIP (30 wt.-% DEAE-EPIP in water) with and without acid gas loading.
A cylinder (10 mL) was initially charged with the respective solution (8 mL) and the cylinder was closed. […] In the experiments conducted under acid gas loading, the acid gas loading of the solutions was 20 m^3 (STP)/tsolvent of CO2 and 20 m^3 (STP)/tsolvent of H2S. The decomposition level of the amines was calculated from the amine concentration measured by gas chromatography before and after the experiment.

[3] = pKA value by titration with hydrochloric acid; conditions: for pKa: aqueous solution, aqueous solution 0.005 mol amine per liter, HCl 0.1 mol/L; for pKa / Second pKA value (in words): 20° C.; for First pKA value (in words): at relatively low temperatures (20° C.)
[4] = Acid gas loading capacity: H2S loading and stripping experiment; conditions: for H2S loading after loading / H2S loading after stripping / Cyclic H2S capacity: 30 wt.-% amine in water; for H2S loading after loading: 40° C., ambient pressure, 8 L (STP)/h H2S, about 4 h; for H2S loading after stripping: stripping at 80° C. with N2 8 L (STP)/h, 60 min; for Cyclic H2S capacity: difference of loading after loading and after stripping
Method: as §1, §2, §3, §4, §5

[5] = Relative volatility: N2 passed through the absorbent, condensate analysed by GC and Karl Fischer titration; conditions: for Amine (in condensate) / Water (in condensate) / Condensate: 30 wt.-% aqueous solution, 50° C., 8 h; for Amine (in condensate) / Water (in condensate): 30 L (STP)/h N2; for Amine (in condensate): GC; for Water (in condensate): Karl Fischer titration; for Condensate: 200 mL, 30 L (STP)/h N2, condenser 5° C.; for Volatility (in words): 30 wt.-% aqueous solutions
Method: The volatility of amines TBAP-MPIP and TBAE-MPIP in 30 wt.-% aqueous solutions was compared to that of amines M3ETB, MDEA and TBAEPY in 30% wt.-% aqueous solutions.
A glass condenser, which was operated at 5° C., was attached to a glass cylinder with a thermostated jacket. The glass cylinder was thermostated to 50° C., and 200 mL of the absorbent were introduced for each test. Over an experimental duration of 8 h, 30 L (STP)/h of N2 were passed through the absorbent at ambient pressure. For each amine, the test was conducted three times. The condensate was analyzed by means of GC and Karl Fischer titration.

| CO2 loading after loading [1] [mol CO2/molamine] | CO2 loading after stripping [1] [mol CO2/molamine] | Cyclic CO2 capacity [1] [mol CO2/molamine] | Ratio of Degradation Without Acid Gas Loading [2] | Ratio of Degradation With Acid Gas Loading [2] | pKa ([3]; read-out: pKA 1) | pKa ([3]; read-out: pKA 2) | pKa ([3]; read-out: pKA 3) | H2S loading after loading [4] [mol H2S/molamine] | H2S loading after stripping [4] [mol H2S/molamine] | Cyclic H2S capacity [4] [mol H2S/molamine] | Amine (in condensate) [5] [wt %] | Water (in condensate) [5] [wt %] | Condensate [5] [mL] | Second pKA value (in words) [3] | First pKA value (in words) [3] | Volatility (in words) [5] | SMILES | Cyclic H2S capacity (in words) ([4]; 30 wt.-% in water, comparison with TBAP-MPIP and TBAE-MPIP) | Acid gas loading capacities (in words) [1] | Stability in aqueous solutions (in words) [2] |
| --- | --- | --- | --- | --- | --- | --- | --- | --- | --- | --- | --- | --- | --- | --- | --- | --- | --- | --- | --- | --- |
| 1.48 | 0.13 | 1.35 | 1.00 | 0.77 | 10.3 | 8.61 | 6.2 | 0.98 | 0.31 | 0.67 | – | – | – | – | – | – | CCN(CC)CCN1CCN(CC)CC1 [DEAE-EPIP, 2-(4-ethylpiperazin-1-yl)ethyl-diethylamine, reference compound] | significantly lower than the capacity of both TBAP-MPIP and TBAE-MPIP | – | – |
| – | – | – | – | – | – | – | – | – | – | – | 0.7 | 99.2 | 30.1 | – | – | – | COCCOCCOCCNC(C)(C)C [M3ETB, (2-(2-(2-tert-butylaminoethoxy)ethoxy)ethyl)methyl ether, reference compound] | – | – | – |
| – | – | – | – | – | – | – | – | – | – | – | 0.2 | 99.5 | 28.8 | – | – | – | CC(C)(C)NCCN1CCCC1=O [TBAEPY, 1-[2-(tert-butylamino)ethyl]pyrrolidin-2-one, reference compound] | – | – | – |
| 1.41 | 0.70 | 0.71 | 0.99 | 0.91 | 10.7 | 7.68 | 5.8 | 1.48 | 0.33 | 1.15 | 0.3 | 99.7 | 30.3 | close to the pKa value of MDEA | high first pKA values | suitably low volatility | CN1CCN(CCCNC(C)(C)C)CC1 [TBAP-MPIP, 3-(4-methylpiperazin-1-yl)propyl-tert-butylamine] | – | significantly higher acid gas loading capacities than absorbents based on TBAEE and MDEA | comparable to MDEA, and higher than DEAE-EPIP |
| 0.97 | 0.24 | 0.73 | – | – | – | – | – | – | – | – | – | – | – | – | – | – | CC(C)(C)NCCOCCO [TBAEE, 2-(2-tert-butylaminoethoxy)ethanol, reference compound] | – | – | – |
| 1.46 | 0.22 | 1.24 | 1.00 | 0.88 | 10 | 8.82 | 5.47 | 1.62 | 0.35 | 1.27 | 0.7 | 99.3 | 29.28 | close to the pKa value of MDEA | high first pKA values | suitably low volatility | CN1CCN(CCNC(C)(C)C)CC1 [TBAE-MPIP, 2-(4-methylpiperazin-1-yl)ethyl-tert-butylamine] | – | significantly higher acid gas loading capacities than absorbents based on TBAEE and MDEA | comparable to MDEA, and higher than DEAE-EPIP |
